ChEMBL document CHEMBL1201862, “PubChem BioAssay data set” (2004)
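Cells were grown in 96-well plates and exposed to each compound for 48 hours at five concentrations; endpoints were interpolated linearly between bracketing concentrations, or set to the highest concentration if not reached. GI50: concentration for 50% inhibition of growth.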 Calls of active or inactive are those of the source. Rule as the data show it: active = GI50 up to about 1.1 µM and inactive = higher.

Tests used:
Test in all cases: NCI anticancer screen, dose series, 48 h
[1] = test system: HCC 2998
[2] = test system: 786-0
[3] = test system: Malme-3M
[4] = test system: SN12C
[5] = test system: SF-539
[6] = test system: SW-620
[7] = test system: NCI-H522
[8] = test system: HCT-116
[9] = test system: HOP-92
[10] = test system: LOX IMVI
[11] = test system: SK-MEL-5
[12] = test system: NCI/ADR-RES
[13] = test system: A498
[14] = test system: MCF7
[15] = test system: SF-295
[16] = test system: M14
[17] = test system: CCRF-CEM
[18] = test system: SR
[19] = test system: SNB-75

Measured: GI50

Nc1ccc(Cc2c(N)[nH]c(=O)[nH]c2=O)cc1
inactive: [1] > 100 µM | [2] > 100 µM | [3] > 100 µM | [4] > 100 µM | [5] > 100 µM | [6] > 100 µM | [7] > 100 µM | [8] > 100 µM | [9] > 100 µM | [10] > 100 µM | [11] > 100 µM | [12] > 100 µM | [13] 47.3 µM | [14] > 100 µM | [15] > 100 µM | [16] > 100 µM | [17] 39.5 µM

COC(=O)NC1(NC(=O)OC)NC(=O)c2cc(OC)c(OC)cc2N1
inactive: [2] 32.6 µM | [4] > 100 µM | [5] 25.6 µM | [6] 42.6 µM | [7] 2.54 µM | [8] 29.8 µM | [10] 62.1 µM | [11] 32.3 µM | [12] 31.5 µM | [14] 16.1 µM | [15] 23.6 µM | [18] 25.4 µM | [16] 20.8 µM | [17] 5.21 µM

Cc1ccc2c(c1)C(=O)N1CCC[C@H]1C=N2
inactive: [1] 19.6 µM | [2] 27.1 µM | [3] 18.7 µM | [4] 23 µM | [5] 18.3 µM | [6] 23.4 µM | [7] 5.13 µM | [8] 30 µM | [9] 25.5 µM | [10] 23.6 µM | [11] 11.1 µM | [12] 21.1 µM | [13] 34 µM | [14] 11.9 µM | [15] 31.3 µM | [16] 16.9 µM | [17] 4.02 µM

CCCn1c(SC)nc(COC(=O)NC)c1COC(=O)NC
inactive: [2] > 100 µM | [4] > 100 µM | [5] > 100 µM | [6] > 100 µM | [7] > 100 µM | [8] > 100 µM | [10] > 100 µM | [11] > 100 µM | [12] > 100 µM | [13] 64 µM | [14] > 100 µM | [15] > 100 µM | [18] > 100 µM | [16] > 100 µM | [17] > 100 µM | [19] > 100 µM

O=C1Nc2ccccc2[C@]12C[C@H]2c1ccccn1
inactive: [1] > 100 µM | [2] > 100 µM | [3] > 100 µM | [4] > 100 µM | [5] > 100 µM | [6] > 100 µM | [7] > 100 µM | [8] > 100 µM | [9] > 100 µM | [10] > 100 µM | [11] > 100 µM | [12] > 100 µM | [13] > 100 µM | [14] > 100 µM | [15] > 100 µM | [16] > 100 µM | [17] > 100 µM

O=C(/C=C1/Nc2ccc([N+](=O)[O-])cc2N/C1=C/C(=O)c1ccccc1)c1ccccc1
inactive: [1] 55.8 µM | [2] 18.3 µM | [3] 40.8 µM | [4] 40.8 µM | [5] 8.2 µM | [7] 13.3 µM | [8] 20.7 µM | [11] 38 µM | [12] 18.3 µM | [13] 21.4 µM | [14] 21 µM | [15] 15 µM | [18] 27.5 µM | [16] 86.9 µM | [17] 10.6 µM | [19] 16.9 µM

CNC1=Nc2ccccc2C(=O)N2CSCC12 (configuration not stated)
inactive: [1] > 100 µM | [2] > 100 µM | [3] > 100 µM | [4] > 100 µM | [6] > 100 µM | [7] 23.9 µM | [8] > 100 µM | [10] > 100 µM | [11] > 100 µM | [12] > 100 µM | [13] > 100 µM | [14] > 100 µM | [15] > 100 µM | [18] > 100 µM | [16] > 100 µM | [17] > 100 µM | [19] > 100 µM

O=c1[nH]c(=O)n(C2CC(O)C(CO)O2)cc1C1=NC1 (configuration not stated)
inactive: [1] > 100 µM | [2] > 100 µM | [4] > 100 µM | [5] > 100 µM | [6] > 100 µM | [8] > 100 µM | [9] > 100 µM | [11] > 100 µM | [12] > 100 µM | [13] > 100 µM | [14] > 100 µM | [15] > 100 µM | [16] > 100 µM | [19] 81.3 µM

COCOc1cc(OC)c(Br)cc1C/C(=N/O)C(=O)OC
inactive: [1] > 100 µM | [2] > 100 µM | [3] 25.5 µM | [4] > 100 µM | [5] > 100 µM | [6] > 100 µM | [7] 37.9 µM | [8] > 100 µM | [10] 73.5 µM | [11] 67.8 µM | [12] 34 µM | [14] 95.5 µM | [15] > 100 µM | [18] 34.7 µM | [16] > 100 µM | [17] 37.8 µM | [19] 7.6 µM

CCCCCCCCCc1cc(=O)c2c(O)cc(O)cc2o1
inactive: [1] 21.1 µM | [2] 21.6 µM | [3] 16.4 µM | [4] 22.2 µM | [5] 17.3 µM | [6] 27.9 µM | [7] 15.1 µM | [8] 21.7 µM | [9] 16.3 µM | [10] 21.8 µM | [11] 19.8 µM | [12] 17.6 µM | [13] 18.1 µM | [15] 18.7 µM | [18] 15.2 µM | [16] 18.1 µM | [17] 24.3 µM | [19] 18.1 µM

COc1cc2oc(=O)cc(C)c2c(OC)c1O
inactive: [2] > 100 µM | [3] > 100 µM | [4] > 100 µM | [5] > 100 µM | [6] > 100 µM | [8] > 100 µM | [10] > 100 µM | [11] > 100 µM | [12] > 100 µM | [13] 26.1 µM | [14] > 100 µM | [15] > 100 µM | [18] > 100 µM | [16] > 100 µM | [17] > 100 µM | [19] > 100 µM

Cc1ccc(N/C(=C(/C(Cl)=C(Cl)Cl)[N+](=O)[O-])n2nnc3ccccc32)cc1
inactive: [1] 18.7 µM | [2] 20.8 µM | [3] 16.1 µM | [4] 20.4 µM | [5] 15.2 µM | [6] 20.7 µM | [8] 30 µM | [12] 27.2 µM | [14] 29.1 µM | [15] 20.1 µM | [16] 16.6 µM | [17] 7.06 µM | [19] 18.8 µM
